# Source: ChEMBL document CHEMBL5150077, “Identification of TUL01101: A Novel Potent and Selective JAK1 Inhibitor for the Treatment of Rheumatoid Arthritis” (J Med Chem, 2022)
# Key:
# [1] = target: CDK2/Cyclin A2 (Homo sapiens) (UniProt P24941+P20248); experiment: Inhibition of human CDK2/Cyclin A assessed as residual activity at 30 uM relative to control; type: protein-complex assay
# [2] = target: Mitogen-activated protein kinase 1 (Homo sapiens) (UniProt P28482); experiment: Inhibition of human MAPK1 assessed as residual activity at 30 uM relative to control
# [3] = target: Casein kinase I (Homo sapiens) (UniProt Q9HCP0+P78368+P48730+P49674+P48729); experiment: Inhibition of CK1 (unknown origin) assessed as residual activity at 30 uM relative to control; type: protein assay
# [4] = target: Interleukin-1 receptor-associated kinase 4 (Homo sapiens) (UniProt Q9NWZ3); experiment: Inhibition of human IRAK4 assessed as residual activity at 30 uM relative to control
# [5] = target: 5'-AMP-activated protein kinase catalytic subunit alpha-1 (Homo sapiens) (UniProt Q13131); experiment: Inhibition of human AMPKalpha1 assessed as residual activity at 30 uM relative to control
# [6] = target: RAC-alpha serine/threonine-protein kinase (Homo sapiens) (UniProt P31749); experiment: Inhibition of human PKBalpha assessed as residual activity at 30 uM relative to control
# Mus musculus = experiment: Antiarthritic activity in collagen-induced rheumatoid arthritis DBA/1 mouse model assessed as inhibition rate at 15 mg/kg, po BID administered for 14 days starting from 7 days before immunization to 21 days after immunization and measured on day 41 post immunization; type: functional; settings: DBA/1, 336 h, time 14 day
# Rattus norvegicus [7] = experiment: Antiarthritic activity in adjuvant-induced arthritis rat model assessed as clinical score at 3 mg/kg, po administered twice a day for 14 days starting from day 13 to 27 post immunization and measured every 3 days a week; type: functional; settings: time 14 day
# [8] = target: MAP kinase-activated protein kinase 2 (Homo sapiens) (UniProt P49137); experiment: Inhibition of human MAPKAPK2 assessed as residual activity at 30 uM relative to control
# [9] = Volume of distribution at steady state in beagle dog at 0.2 mg/kg, iv measured for 24 hrs by LC-MS/MS analysis; type: ADME, organism-based, Canis lupus familiaris; settings: in vivo, read-out: Vdss
# [10] = target: Tyrosine-protein kinase ITK/TSK (Homo sapiens) (UniProt Q08881); experiment: Inhibition of human ITK assessed as residual activity at 30 uM relative to control
# [11] = target: Serine/threonine-protein kinase MAK (Homo sapiens) (UniProt P20794); experiment: Inhibition of human MAK assessed as residual activity at 30 uM relative to control
# [12] = target: Serine/threonine-protein kinase mTOR (Homo sapiens) (UniProt P42345); experiment: Inhibition of human mTOR assessed as residual activity at 30 uM relative to control
# [13] = target: Aurora kinase A (Homo sapiens) (UniProt O14965); experiment: Inhibition of human Aurora A assessed as residual activity at 30 uM relative to control
# [14] = target: Mitogen-activated protein kinase 8 (Homo sapiens) (UniProt P45983); experiment: Inhibition of human JNK1-alpha1 assessed as residual activity at 30 uM relative to control
# Rattus norvegicus [15] = experiment: Antiarthritic activity in adjuvant-induced arthritis rat model assessed as reduction in paw volume at 1 mg/kg, po administered twice a day for 14 days starting from day 13 to 27 post immunization and measured every 3 days a week; type: functional; settings: time 14 day
# in vivo = settings: beagle, dog, po, 5 mg/kg
# [16] = target: Proto-oncogene tyrosine-protein kinase Src (Homo sapiens) (UniProt P12931); experiment: Inhibition of human Src (1 to 530 residues) assessed as residual activity at 30 uM relative to control
# [17] = target: Misshapen-like kinase 1 (Homo sapiens) (UniProt Q8N4C8); experiment: Inhibition of human MINK assessed as residual activity at 30 uM relative to control
# [18] = target: Epidermal growth factor receptor (Homo sapiens) (UniProt P00533); experiment: Inhibition of human EGFR assessed as residual activity at 30 uM relative to control
# Epidermal growth factor receptor (Homo sapiens), sequence (P00533 whole entry): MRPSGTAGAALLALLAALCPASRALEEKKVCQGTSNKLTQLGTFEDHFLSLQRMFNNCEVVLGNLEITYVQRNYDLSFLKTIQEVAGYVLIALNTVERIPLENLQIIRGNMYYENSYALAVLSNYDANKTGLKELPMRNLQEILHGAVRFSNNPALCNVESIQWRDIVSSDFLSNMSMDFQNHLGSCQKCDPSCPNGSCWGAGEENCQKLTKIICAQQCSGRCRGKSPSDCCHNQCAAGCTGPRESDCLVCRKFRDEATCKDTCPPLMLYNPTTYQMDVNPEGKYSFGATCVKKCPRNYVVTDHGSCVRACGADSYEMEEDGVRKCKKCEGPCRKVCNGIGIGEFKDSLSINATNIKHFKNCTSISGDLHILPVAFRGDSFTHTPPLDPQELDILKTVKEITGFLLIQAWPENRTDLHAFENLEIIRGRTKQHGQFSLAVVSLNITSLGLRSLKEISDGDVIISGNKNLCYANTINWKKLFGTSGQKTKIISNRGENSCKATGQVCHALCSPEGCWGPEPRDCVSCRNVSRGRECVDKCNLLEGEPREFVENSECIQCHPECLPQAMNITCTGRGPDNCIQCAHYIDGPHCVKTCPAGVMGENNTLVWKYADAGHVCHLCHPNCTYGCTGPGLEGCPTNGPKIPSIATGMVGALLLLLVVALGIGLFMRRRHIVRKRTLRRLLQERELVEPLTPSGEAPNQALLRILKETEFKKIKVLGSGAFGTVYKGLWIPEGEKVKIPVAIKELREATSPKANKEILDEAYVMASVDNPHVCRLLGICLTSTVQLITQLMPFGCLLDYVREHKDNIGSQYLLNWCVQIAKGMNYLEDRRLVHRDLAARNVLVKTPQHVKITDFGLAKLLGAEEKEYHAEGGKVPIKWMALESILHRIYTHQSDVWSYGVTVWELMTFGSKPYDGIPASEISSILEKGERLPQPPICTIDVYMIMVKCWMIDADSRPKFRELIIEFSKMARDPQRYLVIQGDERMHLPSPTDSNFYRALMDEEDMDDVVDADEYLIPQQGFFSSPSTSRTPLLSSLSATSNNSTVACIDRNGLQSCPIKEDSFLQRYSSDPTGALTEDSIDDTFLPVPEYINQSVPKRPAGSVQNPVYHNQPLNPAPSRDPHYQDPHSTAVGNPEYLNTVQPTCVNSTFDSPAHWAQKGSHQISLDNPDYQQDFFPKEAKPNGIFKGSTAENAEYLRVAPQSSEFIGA
# MAP kinase-activated protein kinase 2 (Homo sapiens), sequence (P49137 whole entry, looked up): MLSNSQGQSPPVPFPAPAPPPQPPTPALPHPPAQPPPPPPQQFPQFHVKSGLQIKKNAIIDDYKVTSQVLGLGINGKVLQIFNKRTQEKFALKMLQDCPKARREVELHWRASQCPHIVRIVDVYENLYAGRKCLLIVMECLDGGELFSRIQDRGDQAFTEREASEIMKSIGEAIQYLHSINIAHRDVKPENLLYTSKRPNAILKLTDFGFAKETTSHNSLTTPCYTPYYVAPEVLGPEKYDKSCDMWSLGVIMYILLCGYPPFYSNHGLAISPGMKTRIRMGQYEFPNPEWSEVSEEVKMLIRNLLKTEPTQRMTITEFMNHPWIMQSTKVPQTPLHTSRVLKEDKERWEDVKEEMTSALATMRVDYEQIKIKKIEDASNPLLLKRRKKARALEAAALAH
# 5'-AMP-activated protein kinase catalytic subunit alpha-1 (Homo sapiens), sequence (Q13131 whole entry, looked up): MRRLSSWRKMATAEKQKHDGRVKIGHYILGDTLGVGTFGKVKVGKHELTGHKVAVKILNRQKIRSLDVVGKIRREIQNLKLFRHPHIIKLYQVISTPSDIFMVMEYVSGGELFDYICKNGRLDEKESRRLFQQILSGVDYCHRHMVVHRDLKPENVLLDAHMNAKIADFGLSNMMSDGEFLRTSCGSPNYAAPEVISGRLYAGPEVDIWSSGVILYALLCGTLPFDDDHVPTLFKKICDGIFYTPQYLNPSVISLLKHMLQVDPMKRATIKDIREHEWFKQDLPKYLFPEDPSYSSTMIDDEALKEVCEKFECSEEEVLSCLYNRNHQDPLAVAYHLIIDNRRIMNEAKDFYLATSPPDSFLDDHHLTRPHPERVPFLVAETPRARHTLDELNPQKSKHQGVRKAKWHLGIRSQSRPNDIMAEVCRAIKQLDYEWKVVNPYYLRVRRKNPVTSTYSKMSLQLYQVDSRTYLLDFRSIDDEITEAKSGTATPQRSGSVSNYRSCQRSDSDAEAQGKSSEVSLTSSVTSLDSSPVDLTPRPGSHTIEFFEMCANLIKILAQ
# Proto-oncogene tyrosine-protein kinase Src (Homo sapiens), sequence (P12931 2-536 limits assumed): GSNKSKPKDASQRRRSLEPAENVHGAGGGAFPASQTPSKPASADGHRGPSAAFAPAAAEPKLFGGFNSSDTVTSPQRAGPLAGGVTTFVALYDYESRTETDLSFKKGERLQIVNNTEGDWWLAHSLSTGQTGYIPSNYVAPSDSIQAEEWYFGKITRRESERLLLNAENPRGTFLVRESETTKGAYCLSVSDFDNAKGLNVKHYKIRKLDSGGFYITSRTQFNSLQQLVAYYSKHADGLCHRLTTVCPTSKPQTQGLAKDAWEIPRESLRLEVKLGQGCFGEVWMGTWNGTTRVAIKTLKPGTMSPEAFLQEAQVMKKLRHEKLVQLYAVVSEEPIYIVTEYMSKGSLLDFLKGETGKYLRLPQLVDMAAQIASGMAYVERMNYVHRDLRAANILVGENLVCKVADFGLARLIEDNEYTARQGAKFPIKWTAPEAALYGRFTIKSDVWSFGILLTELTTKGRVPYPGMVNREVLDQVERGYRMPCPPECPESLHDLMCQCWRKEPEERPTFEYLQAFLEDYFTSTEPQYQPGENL
# Aurora kinase A (Homo sapiens), sequence (O14965 whole entry): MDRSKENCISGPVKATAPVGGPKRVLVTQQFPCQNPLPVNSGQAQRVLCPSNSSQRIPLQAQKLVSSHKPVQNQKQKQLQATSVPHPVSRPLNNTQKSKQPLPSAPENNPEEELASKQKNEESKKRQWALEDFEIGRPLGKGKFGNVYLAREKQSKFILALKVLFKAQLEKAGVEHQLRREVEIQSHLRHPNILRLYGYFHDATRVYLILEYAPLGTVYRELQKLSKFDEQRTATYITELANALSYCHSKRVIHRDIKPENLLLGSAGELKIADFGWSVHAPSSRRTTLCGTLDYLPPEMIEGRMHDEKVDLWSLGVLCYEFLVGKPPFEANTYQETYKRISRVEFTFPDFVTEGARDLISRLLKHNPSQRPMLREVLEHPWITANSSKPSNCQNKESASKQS
# Serine/threonine-protein kinase MAK (Homo sapiens), sequence (P20794 whole entry): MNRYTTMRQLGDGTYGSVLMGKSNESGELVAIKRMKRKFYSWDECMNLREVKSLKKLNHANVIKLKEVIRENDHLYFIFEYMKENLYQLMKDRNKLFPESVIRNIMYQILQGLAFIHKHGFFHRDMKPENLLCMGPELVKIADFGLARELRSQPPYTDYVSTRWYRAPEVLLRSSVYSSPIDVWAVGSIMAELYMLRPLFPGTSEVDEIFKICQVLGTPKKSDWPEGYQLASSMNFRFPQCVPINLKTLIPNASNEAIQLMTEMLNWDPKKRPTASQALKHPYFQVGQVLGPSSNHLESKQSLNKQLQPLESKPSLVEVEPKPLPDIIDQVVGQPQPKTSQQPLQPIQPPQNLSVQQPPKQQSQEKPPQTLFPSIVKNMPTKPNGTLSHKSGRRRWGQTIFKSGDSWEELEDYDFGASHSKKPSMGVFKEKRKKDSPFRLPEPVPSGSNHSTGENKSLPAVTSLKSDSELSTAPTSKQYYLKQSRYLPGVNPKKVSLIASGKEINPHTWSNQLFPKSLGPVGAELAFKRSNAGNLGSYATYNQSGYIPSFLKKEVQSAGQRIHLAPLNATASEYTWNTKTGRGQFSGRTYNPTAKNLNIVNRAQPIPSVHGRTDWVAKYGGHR
# Mitogen-activated protein kinase 1 (Homo sapiens), sequence (P28482 whole entry): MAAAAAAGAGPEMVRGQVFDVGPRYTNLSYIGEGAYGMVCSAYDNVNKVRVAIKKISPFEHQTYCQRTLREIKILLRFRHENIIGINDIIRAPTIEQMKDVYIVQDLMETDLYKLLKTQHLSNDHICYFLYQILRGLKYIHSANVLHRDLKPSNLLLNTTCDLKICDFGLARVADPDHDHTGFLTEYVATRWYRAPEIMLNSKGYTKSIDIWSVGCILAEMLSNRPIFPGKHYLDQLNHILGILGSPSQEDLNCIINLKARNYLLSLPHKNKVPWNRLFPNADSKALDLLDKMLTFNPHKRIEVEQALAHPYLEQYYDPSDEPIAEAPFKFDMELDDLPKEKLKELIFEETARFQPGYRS
# Tyrosine-protein kinase ITK/TSK (Homo sapiens), sequence (Q08881 whole entry): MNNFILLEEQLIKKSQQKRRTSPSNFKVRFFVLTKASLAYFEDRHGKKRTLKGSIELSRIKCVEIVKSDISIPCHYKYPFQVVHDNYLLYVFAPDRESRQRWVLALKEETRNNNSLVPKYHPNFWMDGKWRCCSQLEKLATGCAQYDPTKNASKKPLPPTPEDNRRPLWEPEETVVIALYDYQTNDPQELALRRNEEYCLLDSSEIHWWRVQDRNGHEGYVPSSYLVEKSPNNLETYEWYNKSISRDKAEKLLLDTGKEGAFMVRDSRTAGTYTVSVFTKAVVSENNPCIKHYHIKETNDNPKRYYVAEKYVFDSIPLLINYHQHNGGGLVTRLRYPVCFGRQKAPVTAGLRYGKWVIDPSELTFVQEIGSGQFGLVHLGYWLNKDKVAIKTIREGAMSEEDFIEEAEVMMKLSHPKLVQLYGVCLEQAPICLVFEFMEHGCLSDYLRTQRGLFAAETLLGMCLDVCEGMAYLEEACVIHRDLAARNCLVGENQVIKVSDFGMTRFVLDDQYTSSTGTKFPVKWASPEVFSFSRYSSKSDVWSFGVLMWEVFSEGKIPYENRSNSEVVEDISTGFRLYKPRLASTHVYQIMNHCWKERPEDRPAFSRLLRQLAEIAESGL
compound,measurement,setting,value
O=C(Nc1nc2cccc(C3CCC4(CC3)CN(C(=O)[C@@H]3CC3(F)F)C4)n2n1)C1CC1,Activity,[1],66%
same,Activity,[2],104%
same,Activity,[3],102%
same,Activity,[4],106%
same,Activity,[5],110%
same,Activity,[6],104%
same,inhibition in vivo at 15 mg/kg,Mus musculus,59.9%
same,Activity,Rattus norvegicus [7],3.9
same,Activity,[8],112%
same,Vd,[9],3.23 L/kg
same,Activity,[10],87%
same,Activity,[11],104%
same,Activity,[12],104%
same,Activity,[13],57%
same,Activity,[14],109%
same,Activity,Rattus norvegicus [15],1.91 mL
same,bioavailability at 24 h,in vivo,106%
same,Activity,[16],86%
same,Activity,[17],107%
same,Activity,[18],94%
